What was measured:
rat hepatocytes = test: Activation of Compound 1.1 to Etoposide in rat hepatocytes; format: in vitro ADME
Method: Methods: Hepatocytes were prepared from fed Sprague-Dawley rats (250-300 g) according to the procedure of Berry and Friend (Berry, M. N., Friend, D. S. J. Cell Biol. 43, 506-520 (1969)) as modified by Groen (Groen, A. K. et al. Eur J. Biochem 122, 87-93 (1982)). Hepatocytes (75 mg wet weight/ml) were incubated in 1 ml Krebs-bicarbonate buffer containing 10 mM glucose, and 1 mg/ml BSA. Incubations were carried out in a 95% oxygen, 5% carbon dioxide atmosphere in closed, 50-ml Falcon tubes submerged in a rapidly shaking water bath (37° C.). A 10 mM stock solution of Compound 1.1 was prepared in methanol, and then diluted into the cell suspension or Krebs-bicarbonate buffer to yield a final concentration of 100 μM. […] The cell extracts in the acid layers were neutralized, and the intracellular prodrug metabolite content analyzed by reverse phase HPLC with use of a Beckman Ultrasphere ODS column (4.6×150 mm). The column was equilibrated with 20 mM potassium phosphate buffer, pH 6.3, and eluted with a gradient to 100% methanol. Detection was at 284 nm. Peaks on the chromatograms were identified by comparison to the retention times and spectra of standards of prodrug and parent compound.

[1] = biological target: T1, recombinant human P450-isozyme, CYP3A4 (Homo sapiens, UniProt P08684); test: Activation of Compound 1.1 in vitro by recombinant CYP3A4; format: in vitro ADME; details: 1 mg/ml Baculosomes, 100 μM Compound 1.1, 2 mM NADPH, 37° C.
T1 construct: purchased Panvera Corp., Madison, Wis; host or cells: baculovirus-infected insect cells (microsomes, Baculosomes)
Method: Activation of Compound 1.1 was evaluated in reactions containing microsomes from baculovirus-infected insect cells co-expressing recombinant human P450-isozyme, CYP3A4, and cytochrome P450 reductase (Panvera Corp., Madison, Wis.).
Methods: Reaction mixtures (0.5 ml @ 37° C.) consisted of 1 mg/ml Baculosomes, 100 μM Compound 1.1, 2 mM NADPH and 100 mM KH2PO4 buffer. Reactions were incubated for 30 minutes in an Eppendorf Thermomixer 5436 at 37° C., and reciprocal shaking speed setting 6. 100 μl aliquots were collected at 0, 10, 20 and 30 minutes and quenched with 1.5 volumes of methanol. These extracts were spun for 10 minutes at 14,000 rpm in an Eppendorf microfuge and the supernatants were lyophilized to remove the methanol. The dried supernatant pellets were resuspended in 100 μl 20 mM potassium phosphate buffer, pH 6.3, clarified by centrifugation, and analyzed by HPLC as described in Example A.

[2] = system: parent cell line (AHH-1 TK+/−) which does not express CYP3A4; test: Compound 1.1 activity in parent lymphoblastoid cells not expressing CYP3A4 (colony forming ability); details: non-CYP3A4 expressing cells, 24 hours exposure, 14 days culture
Method: Following drug exposure, cells are diluted to 10 cells/ml and cultured for 14 days to determine colony forming ability.

[3] = Tissue homogenate activity (activation in homogenates from various tissues); format: in vitro ADME, rat; details: 100 μM, 1 hour
Method: Compound 1.1 is tested for activation in homogenates from various tissues to assess the specificity-of liver activation.
Methods: Rats are anesthetized under halothane and tissues including liver, kidney, brain, heart, stomach, spleen, muscle, lung, and testis are excised and frozen in liquid nitrogen. Tissues are then homogenized in 1 to 3 volumes of 50 mM Tris-HCl, 154 mM KCL, 1 mM EGTA, pH 7.4. The homogenates are centrifuged at 10,000 rpm and 4° C. for 30 minutes and the supernatant recovered. Liver cytosol is prepared by centrifuging the crude liver extract for 1 hour at 40,000 rpm and […]. Reaction mixtures consist of 50 mM KH2PO4 pH 7.4, 13 mM glucose-6-phosphate, 2 mM NADP+, 10 units of glucose-6-phosphate dehydrogenase, 100 μM Compound 1.1 and tissue homogenate or liver cytosol at a protein concentration of 8.5 mg/ml. Reactions are incubated at 37° C. Aliquots are taken after 0 and 1 hour of incubation, and extracted with 60% methanol. The methanolic extracts are centrifuged at 14,000 rpm, and filtered prior to analysis by HPLC.

[4] = Liver delivery of Etoposide following administration to rat; format: in vivo
Method: At appropriate time points following drug administration, animals are lightly anesthetized with halothane. The peritoneal cavity is then opened and a blood sample is obtained from the abdominal vena cava and the liver freeze-clamped and excised.
The blood samples are heparinized and plasma is prepared. Plasma samples (100 μL) are mixed with perchloric acid or methanol, vortexed, and then clarified by centrifugation. The supernatants are analyzed for Etoposide by HPLC as described in Example A.
Livers are immediately homogenized in 3 volumes of 10% perchloric acid (w/w), and the extracts clarified by centrifugation at 2500×g (5 minutes). The resulting supernatants are removed and neutralized with 0.3 volumes of 3M KOH/3M KHCO3. The neutralized liver extracts are then spun in an Eppendorf microfuge at 10,000 rpm (20 minutes, 4° C.). The supernatants are analyzed for Etoposide as described above.

[5] = system: human liver microsomes (CYP3A4, CYP1A2, CYP2C9); test: Identification of the P450 isozyme involved in the activation (human microsomes with isozyme inhibitors); format: in vitro ADME; details: 0-100 μM inhibitor, 250 μM prodrug
Method: Prodrugs are evaluated for human microsome-catalyzed conversion to parent compound in the absence and presence of specific inhibitors of three major P450 isozymes: ketoconazole (CYP3A4), furafylline (CYP1A2), and sulfaphenazole (CYP2C9).
Methods: Reactions (0.5 ml @ 37° C.) consist of 0.2 M KH2PO4, 13 mM glucose-6-phosphate, 2.2 mM NADP^+, 1 unit of glucose-6-phosphate dehydrogenase, 0-2.5 mg/ml human microsomal protein (In Vitro Technologies, Inc.), 250 μM prodrug, and 0-100 μM P450 isozyme inhibitor. Reactions are stopped by addition of methanol to a concentration of 60%, filtered ([…]), and lyophilized. Samples are resuspended in HPLC buffer (10 mM phosphate pH 5.5, 2.5 mM octyl-triethyl-ammonium), loaded onto a YMC C8 HPLC column (250×4.6 mm), and eluted with a methanol gradient to 80%. Formation of parent drug is confirmed by co-elution with an authentic parent drug standard.

rat embryos in culture = rat embryos in culture (Teratology 39, 31-37 (1989)); cited from earlier work

T1 sequence (P08684 whole entry): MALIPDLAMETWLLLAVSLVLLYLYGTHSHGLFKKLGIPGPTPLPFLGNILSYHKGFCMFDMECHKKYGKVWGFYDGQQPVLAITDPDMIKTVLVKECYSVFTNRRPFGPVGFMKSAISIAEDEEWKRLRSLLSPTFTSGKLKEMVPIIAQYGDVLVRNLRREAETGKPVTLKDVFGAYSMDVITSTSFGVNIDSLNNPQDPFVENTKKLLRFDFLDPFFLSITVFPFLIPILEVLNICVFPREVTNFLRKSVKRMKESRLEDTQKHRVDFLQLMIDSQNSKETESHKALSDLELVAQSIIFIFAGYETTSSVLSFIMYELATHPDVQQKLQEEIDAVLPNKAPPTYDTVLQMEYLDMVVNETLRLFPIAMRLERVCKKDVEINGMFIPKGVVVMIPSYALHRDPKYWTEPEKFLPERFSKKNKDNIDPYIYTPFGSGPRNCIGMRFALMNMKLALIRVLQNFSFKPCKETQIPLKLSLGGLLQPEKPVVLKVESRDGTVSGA

Question: Which “stability in cell-free incubations” value (rat hepatocytes; Krebs-bicarbonate buffer without cells, 100 μM, 37° C.) does the source give for `COc1cc(C2c3cc4c(cc3C(OC3OC5COC(C)OC5C(O)C3O)C3COC(=O)C23)OCO4)cc(OC)c1OP1(=O)OCCC(c2ccncc2)O1` (stereo not shown) [Compound 1.1, 4′-O-(2-oxo-4-pyridyl-1,3,2-dioxaphosphorinan-2-yl)-etoposide] here?
Answer: Its value is “stable”.

Question: What about the “intracellular levels of Etoposide” value (rat hepatocytes; rat hepatocytes, 100 μM Compound 1.1, 2-hour time point) of the same molecule?
Answer: Its value is “approximately 40 nmoles/gram of cells”.

Question: And the “activation to Etoposide phosphate and free Etoposide” value (rat hepatocytes; rat hepatocytes, 100 μM, 37° C.)?
Answer: Its value is “activated to Etoposide”.

Question: What about the “rate of Etoposide phosphate formation” value [1] of the same molecule?
Answer: Its value is 386 nmoles Etoposide phosphate/nmole CYP3A4/h.

Question: What about the “cytotoxicity (inhibition of cell colony formation)” value [2] of the same molecule?
Answer: Its value is “substantial reduction cytotoxic activity”.

Question: What about the “activation in crude rat liver homogenate” value ([3]; 8.5 mg/ml protein, 37° C.) of the same molecule?
Answer: The value was “depletion of the prodrug and formation of parent compound”.

Question: And the “activation in other tissue homogenates” value ([3]; kidney, brain, heart, stomach, spleen, muscle, lung, testis)?
Answer: Its value is “fails to result in appreciable activation”.

Question: What about the “activation in liver cytosol” value ([3]; liver cytosol without microsomal P450 enzymes, 37° C.) of the same molecule?
Answer: The value was “does not result in activation”.

Question: What about the liver specificity ([4]; in vivo, relative to free etoposide) of the same molecule?
Answer: The liver specificity was “enhanced liver specificity”.

Question: What about the “area under the curve of Etoposide in liver” value ([4]; rat, oral or intravenous, compared to administration of free Etoposide) of the same molecule?
Answer: Its value is “higher”.

Question: What about the “levels of Etoposide in plasma” value ([4]; rat, oral or intravenous, compared to free Etoposide) of the same molecule?
Answer: Its value is “Reduced levels”.

Question: With `CC(=O)N1CCN(c2ccc(OCC3COC(Cn4ccnc4)(c4ccc(Cl)cc4Cl)O3)cc2)CC1` (stereo not shown) [Ketoconazole, ketoconazole] as the molecule, how does the “inhibition of formation of parent drug by P450 isozyme inhibitor” value (shortened to “inhibition of formation of parent drug”) [5] read?
Answer: Its value is “inhibit the formation parent drug in a dose-dependent fashion”.

Question: And the “inhibition of formation of parent drug” value ([5]; listed as ketoconozole)?
Answer: The value was “inhibition of drug formation”.

Question: For `C=CC(=O)c1ccccc1` [Phenyl vinyl ketone], which teratogenic activity (rat embryos in culture) is on record?
Answer: Its teratogenic activity is “lacks teratogenic activity”.

Question: Which “inhibition of formation of parent drug” value [5] does the source give for `Cc1nc2c([nH]1)c(=O)n(C)c(=O)n2Cc1ccco1` [furafylline] here?
Answer: The value was “no significant inhibition”.

Question: Which “inhibition of formation of parent drug” value [5] does the source give for `Nc1ccc(S(=O)(=O)Nc2ccnn2-c2ccccc2)cc1` [sulfaphenazole] here?
Answer: Its value is “no significant inhibition”.

Source: patent US7303739B2, “Prodrugs for liver specific drug delivery” (Metabasis Therapeutics, Inc., priority 1999, dated 2007)
